Read-outs that look alike come from different tables or passages of the source.
Key:
Assay type in all cases: cell-based
HBV = assay: Anti-viral assay in HepG2.2.15 cells: anti-HBV activity, HBV DNA in culture medium by qPCR; conditions: HepG2.2.15 cells, 6 days treatment, HBV DNA by qPCR, read-out: EC50
Procedure: (§1) HepG2.2.15 (the HepG2.2.15 cell line can be produced by transfection of the HepG2 cell line as described in Sells, Chen, and Acs 1987 (Proc. Natl. Acad. Sci. USA 84: 1005-1009), and the HepG2 cell line is available from ATCC® under number HB-8065™)
(§2) HepG2.2.15 cells were plated into 96-well plate in 2% FBS culture medium at the density of 40,000 cells/well and 5,000cells/well for HBV inhibitory activity and cytotoxicity determination, respectively. After incubation at 37° C., 5% CO2 overnight, cells were treated with medium containing compounds for 6 days with medium and compounds refreshed after 3 days of treatment. Each compound was tested in a 1:3 serial dilutions at 8 different concentrations in triplicate. The highest concentration of the compounds was 10 uM or 1 uM for anti-HBV activity assay and 100 uM for cytotoxicity determination.
The change of HBV DNA level induced by the compounds was assessed by quantitative real-time polymerase chain reaction (qPCR). Briefly, the HBV DNA in the culture medium was extracted using QIAamp 96 DNA Blood Kit according to the manual and then quantified by real-time PCR assay using the primers and probe in the table 1 below.
(§3) EC50 and CC50 values are calculated by the […] PRISM software.

HepG2.2.15 cells = assay: Cytotoxicity determination in HepG2.2.15 cells (CCK-8 assay); conditions: 6 days treatment, CCK-8, highest concentration 100 uM
Procedure: as §1, §2
(§4) Cell viability was determined by CCK-8 assay. After 6 days of compounds treatment, 20 μl CCK-8 reagents were added to each well of cytotoxicity assay plates. Cell plates were incubated at 37° C., 5% CO2 for 2.5 h. The absorbance at 450 nm wavelength and the absorbance at 630 nm wavelength as reference was measured.
as §3

[1] = as above; conditions: human, 6 days treatment, CCK-8, highest concentration 100 uM
Procedure: as §1, §2, §4, §3

[2] = Hepatitis B virus, HepG2.2.15, 144 h

SMILES | EC50 (HBV) [nM] | CC50 (HepG2.2.15 cells) [nM] | EC50 (HBV; [2]) [nM] | CC50 at 6 days [1] [nM]
COC(=O)C1=C(CN2CCN3C(=S)N(CC(C)(C)C(=O)O)CC3C2)NC(c2nccs2)=NC1c1ccc(F)cc1Cl (single isomer, unassigned) [Compound 4A, 3-(7-((6-(2-chloro-4-fluorophenyl)-5-(methoxycarbonyl)-2-(thiazol-2-yl)-3,6-dihydropyrimidin-4-yl)methyl)-3-thioxohexahydroimidazo[1,5-a]pyrazin-2(3H)-yl)-2,2-dimethylpropanoic acid] | 49 | 52800 |  | 
CCOC(=O)C1=C(CN2CCN3C(=S)N(CC(C)(C)C(=O)O)CC3C2)NC(c2nccs2)=N[C@H]1c1cccc(F)c1C (single isomer, unassigned) [Compound 1B] | 43 | 22400 |  | 
CCOC(=O)C1=C(CN2CCN3C(=S)N(CC(C)C(=O)O)C[C@@H]3C2)NC(c2nccs2)=N[C@H]1c1cccc(F)c1C (single isomer, unassigned) [Compound 27B] | 2.6 | 25300 |  | 
CCOC(=O)C1=C(CN2CCN3C(=S)N(CC4(C(=O)O)CC4)CC3C2)NC(c2nccs2)=NC1c1cccc(F)c1Cl (centres unmarked) [Compound 5, 1-((7-((6-(2-Chloro-3-fluorophenyl)-5-(ethoxycarbonyl)-2-(thiazol-2-yl)-3,6-dihydropyrimidin-4-yl)methyl)-3-thioxohexahydroimidazo[1,5-a]pyrazin-2(3H)-yl)methyl)cyclopropanecarboxylic acid] |  |  | 1.7 | 11800
CCOC(=O)C1=C(CN2CCN3C(=S)N(CC4(C(=O)O)CC4)CC3C2)NC(c2nccs2)=N[C@H]1c1cccc(F)c1C (single isomer, unassigned) [Compound 9B] | 0.7 | 14600 |  | 
CCOC(=O)C1=C(CN2CCN3C(=NC#N)N(CC(C)(C)C(=O)O)CC3C2)NC(c2nccs2)=N[C@H]1c1cccc(F)c1C (stereo partly drawn) [Compound 2, 3-(3-(cyanoimino)-7-(((S)-5-(ethoxycarbonyl)-6-(3-fluoro-2-methylphenyl)-2-(thiazol-2-yl)-3,6-dihydropyrimidin-4-yl)methyl)hexahydroimidazo[1,5-a]pyrazin-2(3H)-yl)-2,2-dimethylpropanoic acid] |  |  | 49 | 55400
CCOC(=O)C1=C(CN2CCN3C(=S)N([C@@H]4CC[C@H](C(=O)O)C4)CC3C2)NC(c2nccs2)=N[C@H]1c1cccc(F)c1C (single isomer, unassigned) [Compound 24B] | 1 | 9600 |  | 
CCOC(=O)C1=C(CN2CCN3C(=S)N(CC(C)C(=O)O)C[C@@H]3C2)NC(c2nccs2)=N[C@H]1c1cccc(F)c1C (single isomer, unassigned) [Compound 27A] |  |  | 4.8 | 23600
CCOC(=O)C1=C(CN2CCN3C(=S)N(CC(C)(C)C(=O)O)C[C@@H]3C2)NC(c2nccs2)=N[C@@H]1c1ccc(F)nc1C (single isomer, unassigned) [Compound 37, 3-(7-((5-(ethoxycarbonyl)-6-(6-fluoro-2-methylpyridin-3-yl)-2-(thiazol-2-yl)-3,6-dihydropyrimidin-4-yl)methyl)-3-thioxohexahydroimidazo[1,5-a]pyrazin-2(3H)-yl)-2,2-dimethylpropanoic acid] |  |  | 100 | ≥ 100000
CCOC(=O)C1=C(CN2CCN3C(=S)N(CC(C)(C)C(=O)O)CC[C@H]3C2)NC(c2nccs2)=N[C@H]1c1cccc(F)c1C [Compound 6, 3-((S)-2-(((S)-5-(ethoxycarbonyl)-6-(3-fluoro-2-methylphenyl)-2-(thiazol-2-yl)-3,6-dihydropyrimidin-4-yl)methyl)-6-thioxohexahydro-2H-pyrazino[1,2-c]pyrimidin-7(6H)-yl)-2,2-dimethylpropanoic acid] |  |  | 67 | 20500
CCOC(=O)C1=C(CN2CCN3C(=S)N(CC4(C(=O)O)CC4)C[C@@H]3C2)NC(c2nccs2)=N[C@H]1c1cccc(F)c1Cl (single isomer, unassigned) [Compound 18B, 1-((7-((6-(2-chloro-3-fluorophenyl)-5-(ethoxycarbonyl)-2-(thiazol-2-yl)-3,6-dihydropyrimidin-4-yl)methyl)-3-thioxohexahydroimidazo[1,5-a]pyrazin-2(3H)-yl)methyl)cyclopropane-1-carboxylic acid] |  |  | 1.5 | 13000
COC(=O)C1=C(CN2CCN3C(=S)N(CC(C)(C)C(=O)O)C[C@@H]3C2)NC(c2nccs2)=N[C@@H]1c1ccc(F)cc1Br (single isomer, unassigned) [Compound 16A, 3-(7-((6-(2-Bromo-4-fluorophenyl)-5-(methoxycarbonyl)-2-(thiazol-2-yl)-3,6-dihydropyrimidin-4-yl)methyl)-3-thioxohexahydroimidazo[1,5-a]pyrazin-2(3H)-yl)-2,2-dimethylpropanoic acid] |  |  | 4.5 | 15300
CCOC(=O)C1=C(CN2CCN3C(=S)N(CC(C)(C)C(=O)O)CC3C2)NC(c2nccs2)=NC1c1cccc(F)c1Cl (single isomer, unassigned) [Compound 3A, 3-(7-((6-(2-chloro-3-fluorophenyl)-5-(ethoxycarbonyl)-2-(thiazol-2-yl)-3,6-dihydropyrimidin-4-yl)methyl)-3-thioxohexahydroimidazo[1,5-a]pyrazin-2(3H)-yl)-2,2-dimethylpropanoic acid] | 19 |  |  | 25200
COC(=O)C1=C(CN2CCN3C(=S)N(CC(C)(C)C(=O)O)CC3C2)NC(c2nccs2)=NC1c1cccc(F)c1C (single isomer, unassigned) [Compound 10B, 3-(-7-((6-(3-Fluoro-2-methylphenyl)-5-(methoxycarbonyl)-2-(thiazol-2-yl)-3,6-dihydropyrimidin-4-yl)methyl)-3-thioxohexahydroimidazo[1,5-a]pyrazin-2(3H)-yl)-2,2-dimethylpropanoic acid] |  |  | 2.9 | 23200
COC(=O)C1=C(CN2CCN3C(=S)N(CC(C)(C)C(=O)O)C[C@@H]3C2)NC(c2nccs2)=N[C@H]1c1cccc(F)c1Cl (single isomer, unassigned) [Compound 20A, 3-(7-((6-(2-chloro-3-fluorophenyl)-5-(methoxycarbonyl)-2-(thiazol-2-yl)-3,6-dihydropyrimidin-4-yl)methyl)-3-thioxohexahydroimidazo[1,5-a]pyrazin-2(3H)-yl)-2,2-dimethylpropanoic acid] |  |  | 3.5 | 16400
CCOC(=O)C1=C(CN2CCN3C(=S)N([C@H]4CC[C@@H](C(=O)O)C4)CC3C2)NC(c2nccs2)=N[C@H]1c1cccc(F)c1C (single isomer, unassigned) [Compound 24D] | 35 | 9400 |  | 
CCOC(=O)C1=C(CN2CCN3C(=S)N(CC(CC)C(=O)O)CC3C2)NC(c2nccs2)=N[C@H]1c1cccc(F)c1C (stereo partly drawn) [Compound 17, 2-((7-(((S)-5-(ethoxycarbonyl)-6-(3-fluoro-2-methylphenyl)-2-(thiazol-2-yl)-3,6-dihydropyrimidin-4-yl)methyl)-3-thioxohexahydroimidazo[1,5-a]pyrazin-2(3H)-yl)methyl)butanoic acid] |  |  | 5.6 | 13200
CCOC(=O)C1=C(CN2CCN3C(=S)N([C@H]4CC[C@@H](C(=O)O)C4)CC3C2)NC(c2nccs2)=N[C@H]1c1cccc(F)c1C (single isomer, unassigned) [Compound 24C] | 1.4 |  |  | 11600
CCOC(=O)C1=C(CN2CCN3C(=S)N(C[C@@H](C)C(=O)O)C[C@@H]3C2)NC(c2ncoc2C)=NC1c1cccc(F)c1C (single isomer, unassigned) [Compound 32B, 3-(7-((5-(Ethoxycarbonyl)-6-(3-fluoro-2-methylphenyl)-2-(5-methyloxazol-4-yl)-3,6-dihydropyrimidin-4-yl)methyl)-3-thioxohexahydroimidazo[1,5-a]pyrazin-2(3H)-yl)-2-methylpropanoic acid] | 27.4 | 42500 |  | 
CCOC(=O)C1=C(CN2CCN3C(=S)N(CC4(C(=O)O)CCC4)CC3C2)NC(c2nccs2)=N[C@H]1c1cccc(F)c1C (single isomer, unassigned) [Compound 29B] |  |  | 1.5 | 11200
CCOC(=O)C1=C(CN2CCN3C(=S)N(C)C[C@@H]3[C@H]2C(=O)O)NC(c2nccs2)=N[C@H]1c1cccc(F)c1C (single isomer, unassigned) [Compound 35A] | 47.9 |  |  | 77000
CCOC(=O)C1=C(CN2CCN3C(=S)N(CC(C)(C)C(=O)O)C[C@@H]3C2)NC(c2ncc(F)cc2F)=N[C@H]1c1cccc(F)c1C (single isomer, unassigned) [Compound 22A, 3-(7-((2-(3,5-difluoropyridin-2-yl)-5-(ethoxycarbonyl)-6-(3-fluoro-2-methylphenyl)-3,6-dihydropyrimidin-4-yl)methyl)-3-thioxohexahydroimidazo-[1,5-a]pyrazin-2(3H)-yl)-2,2-dimethylpropanoic acid] |  |  | 8.9 | 12800

Reference: patent US20230165865A1, “HETEROARYLDIHYDROPYRIMIDINE DERIVATIVES AND METHODS OF TREATING HEPATITIS B INFECTIONS” (Janssen Pharmaceutica NV, priority 2018, published 2023)
